Reference: US6358883B1, “Pesticidal and parasiticidal use of 1-aryl-1-(substituted thio, sulfinyl and sulfonyl)-2-nitroethane compounds” (American Cyanamid Company, priority 1998, dated 2002)

Legend:
Type in all cases: in vivo
[1] = tested on: M. incognita (Root Knot Nematode) larvae; assay: Evaluation of test compounds against M. incognita larvae in microtiter plate wells (movement score); conditions: larvae scored for movement after 20-24 hours; also: key: A score of '9' indicates inactive worms with a straight, sticklike morphology; A score of '8' indicates inactive worms with a limp, curled or curved morphology; A score of '7' indicates dead/paralyzed worms after 72 hours
Summary of the method: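 Newly emerged M. incognita larvae in S Medium (buffered salt solution), 50-65 worms per well, exposed to test compounds in sealed microtiter wells. Movement scored after 20-24 h incubation; wells with obviously dead/paralyzed larvae scored positive. A score of "7" denotes dead/paralyzed worms after […].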

[2] = tested on: C. elegans (Bristol strain); assay: Evaluation of test compounds against C. elegans (motility, 96-well plate); set-up: key: 9=complete kill in 4 hours; 8=complete kill in 24 hours; 7=markedly reduced motility in approximately 95% of worms in 24 hours; 0=normal motility, same as controls; conditions: motility at 4 and 24 hours
Summary of the method: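 Bristol-strain C. elegans in Na buffer added to wells containing dried compound (applied in 80% acetone) and incubated at 20 °C. Motility of adults and larvae scored subjectively but semi-quantitatively under a dissecting microscope at 4 and 24 h after immersion, plates tapped before reading.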

[3] = tested on: Spodoptera eridania, 2nd instar larvae, southern armyworm (SAW); assay: Southern armyworm (SAW) leaf dip test; set-up: key: 0 = no effect; 1 = 10-25% kill; 2 = 26-35% kill; 3 = 36-45% kill; 4 = 46-55% kill; 5 = 56-65% kill; 6 = 66-75% kill; 7 = 76-85% kill; 8 = 86-99% kill; 9 = 100% kill
Summary of the method: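 Compound is dissolved at 10,000 ppm in 35% acetone/water, then diluted with water. Lima bean leaves are dipped for 3 seconds, dried and placed with ten 2nd instar larvae on damp filter paper. Mortality, reduced feeding and molting interference are scored at 5 days.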

[4] = tested on: Diabrotica virgifera virgifera Leconte, 2nd instar western corn rootworm (WCR); assay: Western corn rootworm (WCR) soil test; set-up: key: 0 = no effect; 1 = 10-25% kill; 2 = 26-35% kill; 3 = 36-45% kill; 4 = 46-55% kill; 5 = 56-65% kill; 6 = 66-75% kill; 7 = 76-85% kill; 8 = 86-99% kill; 9 = 100% kill
Summary of the method: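 Compound in 35% acetone/water applied to talc at 1.25 mg active ingredient per jar (about 50 kg/ha), solvent evaporated, then mixed with millet seed and moist soil. Ten 2nd-instar larvae per jar; mortality counted after 5 days, missing larvae scored dead.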

[5] = tested on: Tetranychus urticae (OP-resistant strain), 2-spotted spider mite (TSM); assay: 2-spotted spider mite (TSM) plant dip test; set-up: key: 0 = no effect; 1 = 10-25% kill; 2 = 26-35% kill; 3 = 36-45% kill; 4 = 46-55% kill; 5 = 56-65% kill; 6 = 66-75% kill; 7 = 76-85% kill; 8 = 86-99% kill; 9 = 100% kill; conditions: mortality after 2 days
Summary of the method: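 OP-resistant mites (~100 per leaf) were transferred onto Sieva lima bean primary leaves about 2 h before treatment. Infested plants were dipped for 3 s in compound from a 10,000 ppm stock in 35% acetone/water, diluted with water. Mortality was counted after 2 days.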

[6] = tested on: Aphis gossypii, cotton aphid (CA); assay: Cotton aphid (CA) cotyledon dip test; set-up: key: 0 = no effect; 1 = 10-25% kill; 2 = 26-35% kill; 3 = 36-45% kill; 4 = 46-55% kill; 5 = 56-65% kill; 6 = 66-75% kill; 7 = 76-85% kill; 8 = 86-99% kill; 9 = 100% kill; conditions: mortality after 5 days
Summary of the method: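 Cotyledon-stage cotton plants infested overnight via a heavily infested leaf, then dipped in test solution (compound in 35% acetone/water, diluted with water) and dried. Mortality counted after 5 days.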

[7] = tested on: Spodoptera eridania, eggs-southern armyworm (SAW-Eggs); assay: Southern armyworm eggs (SAW-Eggs) treated diet test; set-up: key: 0 = no effect; 1 = 10-25% kill; 2 = 26-35% kill; 3 = 36-45% kill; 4 = 46-55% kill; 5 = 56-65% kill; 6 = 66-75% kill; 7 = 76-85% kill; 8 = 86-99% kill; 9 = 100% kill; conditions: mortality after 7 days
Summary of the method: (§1)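 Compounds dissolved at 10,000 ppm in 35% acetone/water, diluted with water, applied to artificial diet in wells and dried. Southern corn rootworm or southern armyworm eggs placed on treated diet under vented covers; mortality counted after 7 days.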

[8] = tested on: Diabrotica undecimpunctata howardi, eggs-southern corn rootworm (SCR-Eggs); assay: Southern corn rootworm eggs (SCR-Eggs) treated diet test; set-up: key: 0 = no effect; 1 = 10-25% kill; 2 = 26-35% kill; 3 = 36-45% kill; 4 = 46-55% kill; 5 = 56-65% kill; 6 = 66-75% kill; 7 = 76-85% kill; 8 = 86-99% kill; 9 = 100% kill; conditions: mortality after 7 days
Summary of the method: as §1

Row | Compound | M. incognita (150 ppm) score [1] | Rating Against C. elegans (150 ppm) [2] | SAW (300 ppm) rating [3] | WCR (50 ppm) rating [4] | TSM (300 ppm) rating [5] | CA (300 ppm) rating [6] | SAW Eggs (300 ppm) rating [7] | SCR Eggs (1000 ppm) rating [8]
1 | O=C(CSC(C[N+](=O)[O-])c1ccc2c(c1)OCO2)OCc1ccccc1 (racemic) [Example 106] | 0 | 8 | 0 | 0 | 0 | 0 | 0 | 0
2 | COc1cccc(C(C[N+](=O)[O-])SCC(=O)OCc2ccccc2)c1 (racemic) [Example 107] | 0 | 0 | 0 | 0 | 0 | 0 | 0 | 0
3 | COc1ccc(C(C[N+](=O)[O-])SCC(=O)OCc2ccccc2)cc1 (racemic) [Example 108] | 9 | 8 | 0 | 0 | 0 | 0 | 9 (9 = 100% kill) | 0
4 | O=C(O)CSC(C[N+](=O)[O-])c1ccc2ccccc2c1 (racemic) [Example 109] | 0 | 9 | 0 | 0 | 0 | 0 | 0 | 0
5 | COC(=O)CSC(C[N+](=O)[O-])c1ccc2ccccc2c1 (racemic) [Example 110] | 0 | 9 | 0 | 0 | 0 | 0 | 0 | 0
6 | CCOC(=O)CSC(C[N+](=O)[O-])c1ccc2ccccc2c1 (racemic) [Example 111] | 0 | 8 | 0 | 0 | 0 | 0 | 8 (8 = 86-99% kill) | 0
7 | CCCOC(=O)CSC(C[N+](=O)[O-])c1ccc2ccccc2c1 (racemic) [Example 112] | 0 | 9 | 0 | 0 | 0 | 0 | 8 (8 = 86-99% kill) | 0
8 | CCCCOC(=O)CSC(C[N+](=O)[O-])c1ccc2ccccc2c1 (racemic) [Example 113] | 0 | 9 | 3 (3 = 36-45% kill) | 0 | 0 | 0 | 9 (9 = 100% kill) | 0
9 | O=C(CSC(C[N+](=O)[O-])c1ccc2ccccc2c1)OCc1ccccc1 (racemic) [Example 114] | 0 | 9 | 0 | 0 | 3 (3 = 36-45% kill) | 0 | 9 (9 = 100% kill) | 0
10 | CCCSC(C[N+](=O)[O-])c1ccc2ccccc2c1 (racemic) [Example 115] | 0 | 0 | 0 | 0 | 0 | 0 | 8 (8 = 86-99% kill) | 0
11 | O=[N+]([O-])CC(SCc1ccccc1)c1ccc2ccccc2c1 (racemic) [Example 116] | 0 | 0 | 0 | 0 | 0 | 0 | 0 | 0
12 | COC(=O)CSC(C[N+](=O)[O-])c1ccc(OC(F)(F)F)cc1 (racemic) [Example 117] | 0 | 8 | 0 | 0 | 0 | 0 | 0 | 0
13 | CCOC(=O)CSC(C[N+](=O)[O-])c1ccc(OC(F)(F)F)cc1 (racemic) [Example 118] | 0 | 8 | 0 | 0 | 0 | 0 | 9 (9 = 100% kill) | 0
14 | CCCOC(=O)CSC(C[N+](=O)[O-])c1ccc(OC(F)(F)F)cc1 (racemic) [Example 119] | 9 | 8 | 0 | 0 | 3 (3 = 36-45% kill) | 0 | 9 (9 = 100% kill) | 0
